Measured values published in patent US20240116985A1, “STAPLED PEPTIDES AND METHODS THEREOF” (priority 2020, published 2024).
In brackets after ≈: the same amount, converted by molar mass. Like-named read-outs stand apart in the source and are kept apart here.

Key:
Solubility in PBS = type: physicochemical
Summary of the method: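 Solubility is derived from HPLC peak areas: the ratio of the PBS supernatant peak to a 50 μM DMSO peptide peak, times 50 uM.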

CHI Log D procedure = type: physicochemical
[1] = target: T1, full-length beta-Catenin (Uniprot ID P35222) (Homo sapiens, UniProt P35222); assay: Fluorescence polarization IC50 (beta-catenin / 5FAM-TCF4 10-53 competition); type: binding
T1 construct: 10 nM full-length beta-Catenin (Uniprot ID P35222)
T1 sequence (P35222 1-781): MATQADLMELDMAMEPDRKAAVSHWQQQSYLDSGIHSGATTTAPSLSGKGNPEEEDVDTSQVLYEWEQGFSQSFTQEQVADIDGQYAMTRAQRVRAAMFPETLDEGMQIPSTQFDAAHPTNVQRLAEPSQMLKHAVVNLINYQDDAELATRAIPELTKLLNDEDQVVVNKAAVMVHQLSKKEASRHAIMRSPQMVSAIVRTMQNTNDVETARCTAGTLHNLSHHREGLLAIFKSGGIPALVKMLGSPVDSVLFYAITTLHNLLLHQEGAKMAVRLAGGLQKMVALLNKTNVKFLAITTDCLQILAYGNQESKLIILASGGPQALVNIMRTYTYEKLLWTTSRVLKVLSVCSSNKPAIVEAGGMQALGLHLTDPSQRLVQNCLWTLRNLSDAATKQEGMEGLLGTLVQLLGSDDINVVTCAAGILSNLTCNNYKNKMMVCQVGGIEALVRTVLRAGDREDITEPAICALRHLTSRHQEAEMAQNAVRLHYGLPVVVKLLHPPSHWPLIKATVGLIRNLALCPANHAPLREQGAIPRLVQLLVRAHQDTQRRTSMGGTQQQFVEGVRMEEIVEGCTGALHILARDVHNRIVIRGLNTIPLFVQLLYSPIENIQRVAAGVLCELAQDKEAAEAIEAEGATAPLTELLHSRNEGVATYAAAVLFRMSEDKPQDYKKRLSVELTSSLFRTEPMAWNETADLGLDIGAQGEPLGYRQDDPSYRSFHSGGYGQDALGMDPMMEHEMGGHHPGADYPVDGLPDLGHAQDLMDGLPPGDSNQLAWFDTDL

[2] = read-out: FP EC50, fluorescence polarization, beta-catenin
[3] = FP EC50 (nM), fluorescence polarization, beta-catenin
[4] = fluorescence polarization, beta-catenin, read-out: FP EC50

| CHI Log D (CHI Log D procedure; pH 7.4) | Solubility (Solubility in PBS; Solubility (uM)) | chromatographic logD (CHI Log D procedure; pH 7.4, CHI Log D) | IC50 ([1]; read-out: beta-Catenin FP IC50) | IC50 [1, 4] | Compound | Solubility (Solubility in PBS) | IC50 [1, 2] | chromatographic logD (CHI Log D procedure; pH 7.4) | IC50 [1, 3] |
| --- | --- | --- | --- | --- | --- | --- | --- | --- | --- |
|  |  |  |  |  | C[C@@H]1NC(=O)[C@H](C)NC(=O)[C@H](CC(=O)O)NC(=O)[C@H](CC(=O)O)NC(=O)C2(CCCC=CCCCOC(=O)N3CC[C@@](C(=O)N[C@@H](Cc4ccccc4)C(=O)N[C@@H](Cc4csc5ccccc45)C(=O)N[C@@H](Cc4c[nH]cn4)C(N)=O)(C3)NC(=O)[C@H](CC(N)=O)NC(=O)[C@H](Cc3ccccc3)NC1=O)CCCC=CC[C@]1(CCCN1C(=O)CN=[N+]=[N-])C(=O)N[C@@H](CC(=O)O)C(=O)N[C@@H](CC(C)(C)C)C(=O)N2 (stereo partly drawn) [I-1055, AzAc-PL3-Asp-Npg-B5-Asp-Asp-Ala-Ala-Phe-Asn-PyrS2-Phe-BztA-His-NH2] | 10 µM (≈ 19.6 µg/mL) |  | 2.11 | 7 nM |
|  |  |  |  |  | C[C@@H]1NC(=O)[C@H](C)NC(=O)[C@H](CC(=O)O)NC(=O)[C@H](CC(=O)O)NC(=O)C2(CCCC=CCCCOC(=O)N3CC[C@@](C(=O)N[C@@H](Cc4ccsc4)C(=O)N[C@@H](Cc4csc5ccccc45)C(=O)N[C@@H](C(N)=O)[C@H](C)O)(C3)NC(=O)[C@H](CC(N)=O)NC(=O)[C@H](Cc3ccccc3)NC1=O)CCCC=CC[C@]1(CCCN1C(=O)CN=[N+]=[N-])C(=O)N[C@@H](CC(=O)O)C(=O)N[C@@H](CC(C)(C)C)C(=O)N2 (stereo partly drawn) [I-1058, AzAc-PL3-Asp-Npg-B5-Asp-Asp-Ala-Ala-Phe-Asn-PyrS2-3Thi-BztA-dThr-NH2] | 42 µM (≈ 81.2 µg/mL) |  | 2.25 | 14 nM |
|  |  |  |  |  | C[C@@H]1NC(=O)[C@H](C)NC(=O)[C@H](CN(CC(=O)O)CC(F)(F)F)NC(=O)[C@H](CC(=O)O)NC(=O)C2(CCCC=CCCCOC(=O)N3CC[C@@](C(=O)N[C@@H](Cc4ccccc4Cl)C(=O)N[C@@H](Cc4csc5ccccc45)C(=O)N[C@@H](CCC(N)=O)C(N)=O)(C3)NC(=O)[C@H]([C@@H](C)O)NC(=O)[C@H](Cc3ccccc3)NC1=O)CCCC=CC[C@]1(CCCN1C(=O)CN=[N+]=[N-])C(=O)N[C@@H](CC(=O)O)C(=O)N[C@@H](CC(C)(C)C)C(=O)N2 (stereo partly drawn) [I-1059, AzAc-PL3-Asp-Npg-B5-Asp-TfeGA-Ala-Ala-Phe-Thr-PyrS2-2C1F-BztA-Gln-NH2] | 42 µM (≈ 87.6 µg/mL) |  | 2.44 | 42 nM |
|  |  |  |  |  | C[C@@H]1NC(=O)[C@H](C)NC(=O)[C@H](CC(=O)O)NC(=O)[C@H](CC(=O)O)NC(=O)C2(CCCC=CCCCOC(=O)N3CC[C@@](C(=O)N[C@@H](Cc4ccccc4Cl)C(=O)N[C@@H](Cc4csc5ccccc45)C(=O)N[C@@H](C(N)=O)[C@H](C)O)(C3)NC(=O)[C@H]([C@@H](C)O)NC(=O)[C@H](Cc3ccccc3)NC1=O)CCCC=CC[C@]1(CCCN1C(=O)CN=[N+]=[N-])C(=O)N[C@@H](CC(=O)O)C(=O)N[C@@H](CC(C)(C)C)C(=O)N2 (stereo partly drawn) [I-1060, AzAc-PL3-Asp-Npg-B5-Asp-Asp-Ala-Ala-Phe-Thr-PyrS2-2C1F-BztA-dThr-NH2] | 10 µM (≈ 19.5 µg/mL) |  | 2.6 | 38 nM |
|  | 43 µM (≈ 84.3 µg/mL) | 1.64 | 471 nM |  | CC(=O)N1CCC[C@]12CC=CCCCC1(CCCC=CCCCOC(=O)N3CC[C@@](C(=O)N[C@@H](Cc4ccccc4Cl)C(=O)N[C@@H](Cc4csc5ccccc45)C(=O)N[C@@H](CCC(N)=O)C(N)=O)(C3)NC(=O)[C@H](CC(C)C)NC(=O)[C@H](Cc3ccccc3)NC(=O)[C@H](C)NC(=O)[C@H](C)NC(=O)[C@H](CCC(=O)O)NC(=O)[C@H](CC(=O)O)NC1=O)NC(=O)[C@H](CC(C)(C)C)NC(=O)[C@H](CC(=O)O)NC2=O (stereo partly drawn) [I-1063, Ac-PL3-Asp-Npg-B5-Asp-Glu-Ala-Ala-Phe-Leu-PyrS2-2C1F-BztA-Gln-NH2] |  |  |  |  |
| 1.967 |  |  | 414 nM | 414 nM | CC(=O)N1CCC[C@]12CC=CCCCC1(CCCC=CCCCOC(=O)N3CC[C@@](C(=O)N[C@@H](Cc4ccccc4Cl)C(=O)N[C@@H](Cc4csc5ccccc45)C(=O)N[C@@H](CO)C(N)=O)(C3)NC(=O)[C@H](CC(C)C)NC(=O)[C@H](Cc3ccccc3)NC(=O)[C@H](C)NC(=O)[C@H](C)NC(=O)[C@H](CC(=O)O)NC(=O)[C@H](CC(=O)O)NC1=O)NC(=O)[C@H](CC(C)(C)C)NC(=O)[C@H](CC(=O)O)NC2=O (stereo partly drawn) [I-1064, Ac-PL3-Asp-Npg-B5-Asp-Asp-Ala-Ala-Phe-Leu-PyrS2-2C1F-BztA-Ser-NH2] | 29 µM (≈ 55.2 µg/mL) |  |  |  |
| 2.024 |  |  | 789 nM | 789 nM | CC(=O)N1CCC[C@]12CC=CCCCC1(CCCC=CCCCOC(=O)N3CC[C@@](C(=O)N[C@@H](Cc4ccccc4Cl)C(=O)N[C@@H](Cc4csc5ccccc45)C(=O)N[C@@H](CO)C(N)=O)(C3)NC(=O)[C@H](CC(C)C)NC(=O)[C@H](Cc3ccccc3)NC(=O)[C@H](C)NC(=O)[C@H](C)NC(=O)[C@H](CCC(=O)O)NC(=O)[C@H](CC(=O)O)NC1=O)NC(=O)[C@H](CC(C)(C)C)NC(=O)[C@H](CC(=O)O)NC2=O (stereo partly drawn) [I-1066, Ac-PL3-Asp-Npg-B5-Asp-Glu-Ala-Ala-Phe-Leu-PyrS2-2C1F-BztA-Ser-NH2] | 10 µM (≈ 19.2 µg/mL) |  |  |  |
| 2.053 |  |  | 950 nM | 950 nM | CC(=O)N1CCC[C@]12CC=CCCCC1(CCCC=CCCCOC(=O)N3CC[C@@](C(=O)N[C@@H](Cc4ccccc4Cl)C(=O)N[C@@H](Cc4csc5ccccc45)C(=O)N[C@H](C(N)=O)[C@@H](C)O)(C3)NC(=O)[C@H](CC(C)C)NC(=O)[C@H](Cc3ccccc3)NC(=O)[C@H](C)NC(=O)[C@H](C)NC(=O)[C@H](CC(=O)O)NC(=O)[C@H](CC(=O)O)NC1=O)NC(=O)[C@H](CC(C)(C)C)NC(=O)[C@H](CC(=O)O)NC2=O (stereo partly drawn) [I-1068, Ac-PL3-Asp-Npg-B5-Asp-Asp-Ala-Ala-Phe-Leu-PyrS2-2C1F-BztA-Thr-NH2] | 13 µM (≈ 24.9 µg/mL) |  |  |  |
| 2.113 |  |  | 920 nM | 920 nM | CC(=O)N1CCC[C@]12CC=CCCCC1(CCCC=CCCCOC(=O)N3CC[C@@](C(=O)N[C@@H](Cc4ccccc4Cl)C(=O)N[C@@H](Cc4csc5ccccc45)C(=O)N[C@H](C(N)=O)[C@@H](C)O)(C3)NC(=O)[C@H](CC(C)C)NC(=O)[C@H](Cc3ccccc3)NC(=O)[C@H](C)NC(=O)[C@H](C)NC(=O)[C@H](CC(=O)O)NC(=O)[C@H](CC(=O)O)NC1=O)NC(=O)[C@H](CC(C)(C)C)NC(=O)[C@H](CC(=O)O)NC2=O (stereo partly drawn) [I-1069, Ac-PL3-Asp-Npg-B5-Asp-Asp-Ala-Ala-Phe-Leu-PyrS2-2C1F-BztA-Thr-NH2] | 10 µM (≈ 19.2 µg/mL) |  |  |  |

| Compound | CHI Log D (CHI Log D procedure; pH 7.4) | Solubility (Solubility in PBS; Solubility (uM)) | chromatographic logD (CHI Log D procedure; pH 7.4, CHI Log D) | IC50 ([1]; read-out: beta-Catenin FP IC50) | IC50 [1, 4] | Solubility (Solubility in PBS) | IC50 [1, 2] | chromatographic logD (CHI Log D procedure; pH 7.4) | IC50 [1, 3] |
| --- | --- | --- | --- | --- | --- | --- | --- | --- | --- |
| C[C@@H]1NC(=O)[C@H](C)NC(=O)[C@H](CC(=O)O)NC(=O)[C@H](CC(=O)O)NC(=O)C2(CCCC=CCCCCCC[C@@](C)(C(=O)N[C@@H](Cc3ccsc3)C(=O)N[C@@H](Cc3csc4ccccc34)C(=O)N[C@@H](CCC(N)=O)C(N)=O)NC(=O)[C@H](CC(N)=O)NC(=O)[C@H](Cc3ccccc3)NC1=O)CCCC=CC[C@]1(CCCN1C(=O)CN=[N+]=[N-])C(=O)N[C@@H](CC(=O)O)C(=O)N[C@@H](CC(C)(C)C)C(=O)N2 (stereo partly drawn) [I-1052, AzAc-PL3-Asp-Npg-B5-Asp-Asp-Ala-Ala-Phe-Asn-S8-3Thi-BztA-Gln-NH2] | 2.334 |  |  |  |  | 33 µM (≈ 63.2 µg/mL) | 9 nM |  |  |
| C[C@@H]1NC(=O)[C@H](C)NC(=O)[C@H](CN(CC(=O)O)CC(F)(F)F)NC(=O)[C@H](Cc2ccsc2)NC(=O)C2(CCCC=CCCCOC(=O)N3CC[C@@](C(=O)N[C@@H](CC(=O)O)C(=O)N[C@@H](Cc4csc5ccccc45)C(=O)N[C@@H](CCC(N)=O)C(N)=O)(C3)NC(=O)[C@H](CC(N)=O)NC(=O)[C@H](Cc3ccccc3)NC1=O)CCCC=CC[C@]1(CCCN1C(=O)CN=[N+]=[N-])C(=O)N[C@@H](CC(=O)O)C(=O)N[C@@H](CC(C)(C)C)C(=O)N2 (stereo partly drawn) [I-1056, AzAc-PL3-Asp-Npg-B5-3Thi-TfeGA-Ala-Ala-Phe-Asn-PyrS2-Asp-BztA-Gln-NH2] | 1.929 |  |  |  |  | 41 µM (≈ 84.9 µg/mL) | 6490 nM |  |  |
| C[C@@H]1NC(=O)[C@H](C)NC(=O)[C@H](CN(CC(=O)O)CC(F)(F)F)NC(=O)[C@H](Cc2ccsc2)NC(=O)C2(CCCC=CCCCOC(=O)N3CC[C@@](C(=O)N[C@@H](CC(=O)O)C(=O)N[C@@H](Cc4csc5ccccc45)C(=O)N[C@@H](CCC(N)=O)C(N)=O)(C3)NC(=O)[C@H](CC(N)=O)NC(=O)[C@H](Cc3ccccc3)NC1=O)CCCC=CC[C@]1(CCCN1C(=O)CN=[N+]=[N-])C(=O)N[C@@H](CC(=O)O)C(=O)N[C@@H](CC(C)(C)C)C(=O)N2 (stereo partly drawn) [I-1057, AzAc-PL3-Asp-Npg-B5-3Thi-TfeGA-Ala-Ala-Phe-Asn-PyrS2-Asp-BztA-Gln-NH2] | 1.92 |  |  |  |  | 50 µM (≈ 104 µg/mL) | 6640 nM |  |  |
